{
  "source": "patent US20170007704A1",
  "about": "“CARRIER AND PHARMACEUTICAL COMPOSITIONS FOR INTRASINAL DELIVERY AND USES THEREOF” (priority 2015, published 2017)",
  "tested_on": "multi-drug resistant P. aeruginosa",
  "test": "Susceptibility of the patient's positive bacterial culture",
  "type": "cell-based",
  "settings": "positive bacterial culture of the patient before treatment",
  "source_text": "The patient was a person with an 8 year history of chronic rhinosinusitis with daily and recurrent symptoms including facial congestion, facial pain and pressure, headaches and mucopurulent nasal drainage. The patient achieved limited success with previous treatments which included oral antibiotics, oral/nasal corticosteroids, antibiotic irrigation, saline rinses and suctioning. A positive bacterial culture indicated the presence of multi-drug resistant P. aeruginosa, susceptible only to colistimethate. Colistimethate was only commercially available as a solution for intravenous infusion, requiring hospitalization and constant monitoring for neurotoxicity and nephrotoxicity. In order to avoid the intravenous route of administration and the necessary hospitalization, a novel topical formulation was prescribed, consisting of: […]",
  "data": [
    {"substance": "colistimethate", "values": [
      {"measurement": "susceptibility of cultured pathogen", "result": "susceptible"}
    ]}
  ]
}
